# Paper PMC8238948, “Potent inhibitors of toxic alpha-synuclein identified via cellular time-resolved FRET biosensors” (NPJ Parkinson's Disease, 2021)
# Entries after “also recorded” stand apart in the source; their conditions may differ.
# What was measured:
# [1] = system: inter-protomeric and intra-protomeric αSN FRET biosensors in HEK293 cells; assay: Pilot HTS of the LOPAC library, fluorescence lifetime (FLT) of cellular αSN FRET biosensors; format: cell-based, human; details: 10 µM compound, 90 min; hit = FLT change >5 SD
# Procedure: Prior to each pilot HTS, FLT and emission spectrum were measured to verify signal level, basal FRET, coefficient of variance (CV), and similarity index. For each HTS, cells were dispensed into compound plates—1536-well (10 µL/well)—and incubated with the compounds (10 µM) or dimethyl sulfoxide (DMSO; 1%) for 90 min. FLT measurements were acquired with the FLT-PR. After deconvolving the instrument response function, a single exponential fit was used to determine the FLT for both the αSN cellular FRET biosensor (τDA) and the donor-only control biosensor (τD). FRET efficiency was determined by Eq. 1. CV was determined from control plates (N = 384 wells).
# Fluorescent compounds (FC) were flagged using a spectral similarity index filter, which evaluates the ratio of intensity from two bandwidths that span the donor emission spectrum and are excluded as potential false positives[45],[46],[49],[51],[66]. […] Compounds that changed FLT by >5 standard deviations (SD) were considered hits (Fig. 5, red data points).
# On each day of screening, the compound plates were equilibrated to room temperature (RT; 25 °C). The cells were harvested from the 100-mm plates by incubating with TrypLE (Invitrogen) for 2 min, washed three times in PBS by centrifugation at 200 × g, and filtered using 70-μm cell strainers (BD Falcon). Cell viability prior to screen was assessed using a trypan blue assay and confirmed to be >80%. Cells were diluted to 1.5E6 cells/mL. Expression of GFP-αSN and the αSN biosensors were confirmed by fluorescence microscopy prior to each screen (EvosFL-Auto microscope, Thermo Fisher Scientific, USA). During screening, cells (50 μL/well for 384-well; 10 μL/well for 1536-well) were dispensed by a Multidrop Combi liquid dispenser (Thermo, Pittsburg, PA, USA) into the assay plates containing the compounds and allowed to incubate at RT for 90 min before recording with the FLT-PR or SUPR (both instruments manufactured by Fluorescence Innovations Inc., both owned and provided by Photonic Pharma LLC), as described previously[46].
# Interfering compounds were flagged as potential false positives by a set of stringent FC filters based on spectral analysis of each well from the LOPAC screen[45],[46]. After removal of FCs, a histogram of the FLT distribution from all compounds in the screen was plotted and fit to a Gaussian curve to obtain the mean (µ) and SD (σ). A hit was defined as a compound that attenuated the FLT efficiency by >5σ relative to the mean µ (Supplementary Fig. 12).
# [2] = molecular target: T1, αSN oligomers (Homo sapiens, UniProt P37840); assay: ThT content (β-sheet) of αSN oligomers after oligomerization assay; format: biochemical; details: 70 μM compound (1:5 compound:monomer), 12 h oligomerization; vs DMSO
# T1 construct: made in house; host or cells: Escherichia coli BL21(DE3), T7-7 plasmid
# Procedure: To explore the presence of β-sheet content in these oligomers, an aliquot was removed prior to cross-linking, diluted into 100 μM ThT working solution, and ThT fluorescence was monitored to detect the presence of β-sheet. Supplementary Fig. 22 presents each sample ThT content normalized to the PFF signal. We observed an increased ThT content in the αSN oligomers (αS-O) that was not affected by DMSO (vehicle) treatment.
# A 10-μL aliquot from each sample was taken and diluted with 290 μL ThT working solution (100 μM ThT in PBS) and dispensed into 3 wells of a 384-well, black opaque plate. Additional samples of PBS, αSN(m), and αSN PFF were used as controls. Plates were incubated at ambient temperature for 10 min and then fluorescence read at 450ex/490em on a Spectromax-i3x (Molecular Devices).
# Supplemental Figure 22. Characterization of β-sheet content in αSN oligomers due to hit compound
# After the 12-hour oligomerization assay aliquots of each sample were
# removed and diluted in 100μM ThT and fluorescence read in triplicate (450ex/490em) in 384-well plates. The
# ThT signal was normalized to a signal from previously frozen αSN PFF aliquots. After completion of the
# PFF, green bar) and the ThT signal was not affected by DMSO (red bar). Oligomerization in the presence of
# control compounds, EGCG and Baicalin, at 70μM (a sub-stoichiometric,1:5 compound: monomer ratio)
# Our hit compounds RO, DEM, and BAY had differential effects with
# both DEM and BAY resulting in increased ThT content and RO not producing a significant change relative to
# (1 picture or pasted object on this page, not shown here)
# [3] = system: differentiated SH-SY5Y cells treated with sonicated human αSN PFF; assay: Differentiated SH-SY5Y cell model of αSN PFF pathology (pS129 immunoblot); format: cell-based; details: 50 μM Baicalin, 200 nM human PFF, 48 h
# Procedure: SH-SY5Y cells were differentiated using reduced serum (3%) media supplemented with 10 μM retinoic acid for 3 days and then changed to serum-free media supplemented with 10 ng/mL brain-derived neurotrophic factor for the remainder of the experiment. Stock αSN PFFs were diluted and sonicated as described previously. SH-SY5Y cultures were then treated with 200 nM PFF and PBS, DMSO, 1 μM drug compound (RO, BAY, or DEM), or 50 μM Baicalin. After 48 h, SH-SY5Y were washed with PBS and harvested in cold lysis buffer with protease and phosphatase inhibitors, as previously described. Approximately 15 μg of total protein was loaded onto a 4–20% Criterion TGX midi gel and probed using Syn1 (BD Biosciences, #610787; 1° 1:5000; 2° 1:10K) and pS^129 aSyn (abcam, ab59264; 1° 1:1000; 2° 1:5000) and a-tubulin (abcam, ab4074; 1° 1:1000; 2° 1:10K) page 19: Supplemental Figure 18. […] Differentiated SH-SY5Y cells were treated with PBS, vehicle (DMSO) or compounds with and without 200nM sonicated human αSN PFFs. […] These will be removed in subsequent densitometry analysis. (b) Replicates of PFF +/- compound treatment were ran for immunoblot analysis of pS129 immunoreactivity. (c) Densitometry analysis was performed using ImageLab from BioRad. Total pS129 signal (excluding the non- specific bands) was normalized to tubulin loading control. […] Quantification is normalized per lane to highlight change in the ratio of different species. Note, oligomers quantification is plotted relative to the right-y- axis. All statistical comparisons were to DMSO treatment using two-tailed t-test with * p<0.05; ** p<0.01; *** p<0.005.
# [4] = molecular target: T2, αSN (15 μM monomeric αSN doped with 5% αSN PFF seeds) (Homo sapiens, UniProt P37840); assay: Seeded Thioflavin-T aggregation assay; format: biochemical; details: 15 μM αSN monomer + 5% PFF; for IC50: 37 °C, max ThT intensity
# T2 construct: made in house; host or cells: Escherichia coli BL21(DE3), T7-7 plasmid
# Procedure: Figure 11 and Supplementary Fig. 23 present results from a dose-response-seeded aggregation assay. Vehicle, control, and hit compounds were incubated with 15 µM αSN(m), doped with 5% freshly sonicated αSN PFF in PBS under mild agitation (Supplementary Fig. 23a). […] Titration of control and hit compounds were run in triplicate; representative traces of hit compounds are illustrated in Fig. 11a with a full summary of each titration detailed in Supplementary Fig. 23c–h. IC50 was determined for each compound by determining the max ThT intensity for each concentration (Fig. 11b).
# Seeded ThT aggregation assay was performed using 15 μM monomeric αSN doped with 5% (0.75 μM sonicated αSN pre-formed fibril (PFF) seeds) in a 384-well plate under slow agitation (300 RPM) at 37 °C. a Control samples for the aggregation include PBS (black), αSN monomer (brown), 5% αSN PFF (red), and the 15 μM monomer+5% PFF mixture (orange). Dose-response curves were made with a titration of compounds. […] In contrast, RO and DEM both show potent effects relative to Baicalin and EGCG controls. BAY does have some response, but it lags behind other hit compounds. b Normalizing the initial peak in ThT data allows us to estimate an IC50 for each hit. […] Although there is a small trend with BAY, the data cannot be fit to resolve an IC50.
# ThT (Sigma, product no. T3516) was dissolved in PBS buffer and was filtered through a 0.2-µm syringe filter to make a stock solution of 2.5 mM. Working ThT concentration was 20 µM. PFF seeds were produced via constant agitation of 1000 RPM at 37 °C (ThermoMixer-C, Eppendorf, Hauppauge, NY) of 500 µL of 350 µM αSN in PBS in a 2 mL tube for 5 days. PFFs were aliquoted and flash frozen and stored at −80 °C until further use. PFF seeds were rapidly thawed, diluted to 35 µM in PBS, and sonicated 120 pulses at 50% using a probe-tip sonicator following the established protocols. Master mix samples for each of the different ThT assays were prepared and dispensed in triplicate as 50 µL in 384-well flat, black-bottom polypropylene plates (PN 781209, Greiner Bio-One) and sealed with fluorescently transparent film. Conditions for non-seeded, seeded, and cell homogenate assays varied slightly.
# Seeded ThT experiments were performed at a lower monomer concentration to preclude spontaneous αSN aggregation during the time course of the experiment. For both seeded and cell homogenate experiments, sample were prepared in PBS + 20 µM ThT with or without 15 µM αSN(m) +/− 5% PFF (0.75 µM). Additional control samples of 15 µM PFF and 0.75 µM PFF were also prepared. All empty wells were filled with PBS for a thermal sink and to help prevent evaporation. Assay plates were prepared as pre-cellular FRET dose response above. Dose response was done across 8 concentrations (10 nM to 50 µM). The assay was run at 37 °C with mild shaking (200 RPM) in a Cytation3 plate reader. The ThT fluorescence was monitored with excitation filter of 450 nm and emission filter of 490 nm. Readings were acquired every 20 min for a minimum of 24 h. Seeded ThT aggregation IC50 values were determined by first normalizing all ThT curves to the maximal signal at plateau for the αSN + 5% PFF + DMSO samples. The normalized fluorescence at each concentration was fit to the Hill equation to resolve an effective IC50 of seeded aggregation inhibition.
# [5] = molecular target: T3, A53T αSN oligomer (inter-protomeric) FRET biosensor in HEK293 cells (Homo sapiens, UniProt P37840, A53T); assay: FLT dose response, A53T oligomer (inter-protomeric) FRET biosensor; format: cell-based; details: 1 nM to 50 μM
# T3 construct: In addition to full-length αSN fusion constructs, we observe both C-terminally and N-terminally truncated αSN species; expressed in transfected cells; host or cells: HEK293
# Procedure: (§1) Hits from the pilot HTS of the LOPAC library were selected and dispensed into 384-well plates to verify reproducible and specific FLT trends using the WT and A53T oligomer (inter-protomeric) FRET biosensors. Figure 6 presents a subset of these dose-response curves for hit compounds RO, BAY, SB206553, and DEM, along with known control compound EGCG. […] Assay quality was determined by Z′ (Eq. 2) where a Z′ > 0.5 indicates good assay quality. Using EGCG as control compound and the hit DEM, we calculated Z′ value of 0.76 and 0.66, respectively, indicating excellent assay quality.
# (§2) Fig. 6 FRET dose response of pilot HTS hits. A subset of hits were evaluated using both WT (a) and A53T (b) oligomer biosensor to verify both increased FLT (disrupting αSN–αSN interactions) and decreased FLT (tighter aggregation or remodeled oligomers).
# (§3) Compounds were tested in a FLT dose-response assay. The compound was dissolved to 10 mM in DMSO, then serially diluted in 96-well mother plates. Each hit was re-screened for FLT dose response across eight concentrations (1 nM to 50 μM). Compounds (0.5 μL) were transferred from mother plates into assay plates using a Mosquito HV liquid handler (TTP Labtech Ltd, UK). The preparations for αSN FRET biosensors were carried out as above.
# [6] = molecular target: T4, WT αSN oligomer (inter-protomeric) FRET biosensor in HEK293 cells (Homo sapiens, UniProt P37840); assay: FLT dose response, WT oligomer (inter-protomeric) FRET biosensor; format: cell-based; details: 1 nM to 50 μM
# T4 construct: In addition to full-length αSN fusion constructs, we observe both C-terminally and N-terminally truncated αSN species; expressed in transfected cells; host or cells: HEK293
# Procedure: as §1, §2, §3
# [7] = system: SH-SY5Y cells overexpressing unlabeled wild-type (WT) αSN; assay: CytoTox-Glo cytotoxicity assay: rescue of αSN-induced cytotoxicity; format: cell-based, human
# Procedure: Hit compounds were evaluated for rescue of αSN-induced cytotoxicity in using an SH-SY5Y neuroblastoma cell model of alpha-synucleinopathy[18],[69]–[72]. […] A seven-point CRC for RO, BAY, DEM, and Anle138b (positive control compound[41],[73]) was performed to determine IC50 for each compound. […]
# Cell cytotoxicity was measured using the CytoTox-Glo (Promega Corporation) Luminescence Assay Kit. SH-SY5Y human neuroblastoma cells were plated at a density of 5 × 10^6 cells/plate in 100 mm plate (Corning) and transfected with unlabeled WT αSN or equivalent vector-only control for 24 h. The transfected cells were then plated at a density of 5000 cells/well in white solid 96-well plate (Corning) with a total volume of 100 μL, followed by treatment with hit compounds spanning a range of concentrations (0.1 nM to 100 μM), as well as DMSO-only controls, for another 48 h. After incubation, 50 μL of CytoTox-Glo Cytotoxicity Assay Reagent was added to all wells followed by mixing by orbital shaking and incubation in the dark for 15 min at RT. Luminescence readings were measured using a Cytation3 Cell Imaging Multi-Mode Reader luminometer (BioTek). After the first read, 50 μL of Lysis Reagent was added, incubated for 15 min at RT, and a second read performed. Total viable cellular luminance was determined by the difference between the first and second luminescence signal and total cellular viability is determined by normalizing to the no-treatment samples.
# [8] = molecular target: T5, intra-protomeric αSN biosensor (GFP-αSN-RFP) in HEK293 cells (Homo sapiens, UniProt P37840); assay: FRET response on intra-protomeric αSN biosensor; format: cell-based; details: 10 µM
# T5 construct: In addition to full-length αSN fusion constructs, we observe both C-terminally and N-terminally truncated αSN species; expressed in transfected cells; host or cells: HEK293
# Procedure: Hits were also evaluated with the intra-protomeric αSN and control, non-specific biosensors. […] The compounds RO, BAY, and DEM as well as the control EGCG each reduced FRET, indicating either reduction in oligomerization or expanded oligomer conformation. Tests of these compounds in two control biosensor systems (GFP/RFP at 1:8 and GFP-linker32-RFP; see Supplementary Fig. 13a, b, respectively) show no significant FRET change.
# Fig. 7 FRET response to pilot HTS hits on intra-protomeric αSN biosensor. […] With both donor and acceptor XFP fused to one construct, this biosensor is sensitive to both oligomer formation as well as conformation. […] Experiments were performed with n = 3; *p < 0.05, **p < 0.01, ***p < 0.001, ns indicates no significant difference as determined by Student’s t test.
# [9] = system: αSN oligomerization; set-up: method as in PMID 23604588; details: read-out: apparent EC50, inhibition of αSN oligomerization; cited from earlier work
molecule,measurement,setting,value
N#C/C(=C\c1ccc(-c2cc(Cl)ccc2Cl)o1)C(=O)Nc1cccc2ncccc12 [AGK2],identified as hit in the LOPAC screen,[1],identified
O=C(O)[C@H]1O[C@@H](Oc2cc3oc(-c4ccccc4)cc(=O)c3c(O)c2O)[C@H](O)[C@@H](O)[C@@H]1O [Baicalin],ThT signal of αSN oligomers,[2],complete loss of ThT signal
same,HMW pS129 signal,[3],strong HMW pS^129 signal
same,LMW oligomer pS129 fraction,[3],significantly reduced
same,IC50,[4],387 nM
Cn1c(=O)c(-c2c(Cl)cccc2Cl)cc2cnc(Nc3ccc(N4CCOCC4)cc3)nc21 [PD173952],identified as hit in the LOPAC screen,[1],identified
SB206553,FLT trend in dose response,[5],increasing FLT trend; also recorded: mild recovery of FLT
same,FLT trend in dose response,[6],increasing FLT trend; also recorded: mild recovery of FLT
same,effect on seeded aggregation,[4]; titration up to 50 μM,no aggregation inhibition; also recorded: little to no effect on aggregation
same,rescue of αSN-induced cytotoxicity,"[7]; dose response, 48-h exposure",no observed effect on cytotoxicity
same,rescue of toxicity in three-dose preliminary screen,[7]; three-dose assay,no rescue of toxicity
O=C1Nc2cc(Br)ccc2/C1=C1/Nc2ccccc2/C1=N\O [Bio],identified as hit in the LOPAC screen,[1],identified
O=C(O[C@@H]1Cc2c(O)cc(O)cc2O[C@@H]1c1cc(O)c(O)c(O)c1)c1cc(O)c(O)c(O)c1 [EGCG],ThT signal of αSN oligomers,[2],complete loss of ThT signal
same,FLT trend in dose response,[5],reduced donor FLT
same,change in intra-protomeric FRET,[8],reduced FRET
same,FLT trend in dose response,[6],reduced donor FLT
same,IC50,[4],1100 nM
Brc1cccc(-c2cc(-c3ccc4c(c3)OCO4)[nH]n2)c1 [Anle138b],EC50,[9],2800 nM
same,EC50,"[7]; Homo sapiens, SH-SY5Y, 72-h transfection, 48-h exposure to compound, seven-point CRC, read-out: EC50, protection of SH-SY5Y cells from αSN-induced death",900 nM
